Tested on: Plasmodium berghei
Assay: Luciferase/luciferin-expressing antifolate-resistant parasites were used to infect a culture of HepG2 cells that were pre-incubated with compounds. Infected hepatocytes emit light due to the luciferase reaction. Assay results are presented as the percent inhibition of light emission compared to control. […]
Assay type: functional
Conditions: sporozoite; for IC90: read-out: LUCIFERASE INFECTION ASSAY - IC90
[1] = read-out: LUCIFERASE INFECTION ASSAY - IC50

Row | Structure (SMILES) | IC90 | also measured
1 | O=C(Nc1cccc(C2NCC(c3ccccc3Cl)c3c2[nH]c2ccccc32)c1)c1ccc(Cl)cc1 (centres undefined) | > 10 µM | IC50 (FFLUC_HILL_SLOPE 18, FFLUC_R_SQUARED 0.972, PBLUC_HILL_SLOPE 3.03, PBLUC_R_SQUARED 0.515, read-out: LUCIFERASE INFECTION ASSAY - IC50): 7.4 µM
2 | COc1ccc(-c2cc(NC(=O)c3ccc(OCc4c(C)noc4C)cc3)ccc2OC)cc1 | > 10 µM | IC50 (HEPG2TOX_HILL_SLOPE 5.81, HEPG2TOX_R_SQUARED 0.572, PBLUC_HILL_SLOPE 1.68, PBLUC_R_SQUARED 0.219, read-out: LUCIFERASE INFECTION ASSAY - IC50): > 10 µM
3 | CNc1nc2cnc(-c3cccc(Oc4ccccc4)c3)cc2n1Cc1cccnc1 | > 10 µM | IC50 [1]: > 10 µM
4 | CC1CCC(NC(=O)c2ccc(S(=O)(=O)Nc3ccccc3)cc2)CC1 (centres undefined) | > 10 µM | IC50 [1]: > 10 µM
5 | Cn1nc(C(F)(F)F)cc1-c1ccc(/C=C(\C#N)S(=O)(=O)c2ccc(Cl)cc2)s1 | > 7.21 µM | IC50 (FFLUC_HILL_SLOPE 11.9, FFLUC_R_SQUARED 0.391, read-out: LUCIFERASE INFECTION ASSAY - IC50): > 7.21 µM
6 | O=C1/C(=C/c2ccc3c(c2)OCO3)CCCc2ccccc21 | > 11.3 µM | IC50 (HEPG2TOX_HILL_SLOPE 8.25, HEPG2TOX_R_SQUARED 0.793, PBLUC_HILL_SLOPE 3.07, PBLUC_R_SQUARED 0.361, read-out: LUCIFERASE INFECTION ASSAY - IC50): > 11.3 µM
7 | COc1cncc(-c2cnc3sc(NCC4CCOCC4)nn23)c1 | 1.51 µM | IC50 (HEPG2TOX_HILL_SLOPE 1.52, HEPG2TOX_R_SQUARED 0.935, PBLUC_HILL_SLOPE 11.6, PBLUC_R_SQUARED 0.526, read-out: LUCIFERASE INFECTION ASSAY - IC50): 1.25 µM
8 | Cc1cc(=O)oc2cc(OCC(=O)OCC(=O)c3c(-c4ccccc4)[nH]c4ccccc34)ccc12 | 7.83 µM | IC50 [1]: 1.85 µM
9 | COc1ccccc1C(=O)c1cnc(Nc2cccc(Cc3ccccc3)c2)[nH]1 | > 8.61 µM | IC50 (HEPG2TOX_HILL_SLOPE 11.7, HEPG2TOX_R_SQUARED 0.773, PBLUC_HILL_SLOPE 15.1, PBLUC_R_SQUARED 0.204, read-out: LUCIFERASE INFECTION ASSAY - IC50): 7.82 µM
10 | Cc1csc2sc(C(=O)N3CCOCC3)c(C)c12 | > 11.7 µM | IC50 [1]: > 11.7 µM
11 | Cc1ccc(-n2c(C)cc(C(=O)CN(c3ccccc3)S(=O)(=O)c3ccc(F)cc3)c2C)cc1C | > 10 µM | IC50 (FFLUC_HILL_SLOPE 9.87, FFLUC_R_SQUARED 0.464, read-out: LUCIFERASE INFECTION ASSAY - IC50): > 10 µM
12 | Cc1ccc(O)c(C(=O)NCC(C)c2ccccc2)c1 (centres undefined) | 9.34 µM | IC50 (HEPG2TOX_HILL_SLOPE 0.817, HEPG2TOX_R_SQUARED 0.794, PBLUC_HILL_SLOPE 3.45, PBLUC_R_SQUARED 0.175, read-out: LUCIFERASE INFECTION ASSAY - IC50): 4.94 µM
13 | COc1ccc(N/N=C(\C=N\O)C(=O)c2ccccc2)cc1 | 5.58 µM | IC50 (HEPG2TOX_HILL_SLOPE 1.74, HEPG2TOX_R_SQUARED 0.984, PBLUC_HILL_SLOPE 2.38, PBLUC_R_SQUARED 0.768, read-out: LUCIFERASE INFECTION ASSAY - IC50): 2.22 µM
14 | CCOC(=O)Cc1nn(Cc2nc(-c3ccc4c(c3)C(C)(C)CCC4(C)C)cs2)c(=O)c2ccccc12 | 2.02 µM | IC50 (FFLUC_HILL_SLOPE 16.2, FFLUC_R_SQUARED 0.167, PBLUC_HILL_SLOPE 1.27, PBLUC_R_SQUARED 0.666, read-out: LUCIFERASE INFECTION ASSAY - IC50): 0.357 µM
15 | Cc1ccc(O)c(C(=O)c2c[nH]c(-c3nc4ccccc4[nH]3)c2)c1 | > 10 µM | IC50 (HEPG2TOX_HILL_SLOPE 1.19, HEPG2TOX_R_SQUARED 0.817, PBLUC_HILL_SLOPE 1.99, PBLUC_R_SQUARED 0.294, read-out: LUCIFERASE INFECTION ASSAY - IC50): 3.74 µM
16 | O=C(c1cccnc1)N1CCc2nc(NCc3cccc(Oc4ccccc4)c3)ncc2C1 | > 7.54 µM | IC50 (HEPG2TOX_HILL_SLOPE 6.99, HEPG2TOX_R_SQUARED 0.608, read-out: LUCIFERASE INFECTION ASSAY - IC50): > 7.54 µM
17 | COc1ccc(C(C)C)cc1-c1cc(N2CCCC2CO)n2nccc2n1 (centres undefined) | 6.95 µM | IC50 (HEPG2TOX_HILL_SLOPE 1.35, HEPG2TOX_R_SQUARED 0.737, PBLUC_HILL_SLOPE 1.83, PBLUC_R_SQUARED 0.512, read-out: LUCIFERASE INFECTION ASSAY - IC50): 2.09 µM
18 | COc1cccc(-c2cnn3ccc(Nc4ccc(OC)nc4)nc23)c1 | 3.86 µM | IC50 (HEPG2TOX_HILL_SLOPE 3.92, HEPG2TOX_R_SQUARED 0.974, PBLUC_HILL_SLOPE 24.4, PBLUC_R_SQUARED 0.48, read-out: LUCIFERASE INFECTION ASSAY - IC50): 3.53 µM
19 | C#CCSc1nnc(-c2ccc(C(C)(C)C)cc2)n1-c1ccc(C(C)C)cc1 | > 8.47 µM | IC50 (PBLUC_HILL_SLOPE 0.5, PBLUC_R_SQUARED 0.648, read-out: LUCIFERASE INFECTION ASSAY - IC50): > 8.47 µM

Row | Structure (SMILES) | IC90 | also measured
20 | COC(=O)c1c(C)[nH]c(-c2nc(Nc3cccc(OC)c3)sc2C)c1C | > 10 µM | IC50 (PBLUC_HILL_SLOPE 3.29, PBLUC_R_SQUARED 0.0567, read-out: LUCIFERASE INFECTION ASSAY - IC50): 7.6 µM
21 | Cc1cc2ncc(-c3ccnc(SCC(=O)C(C)(C)C)n3)c(C)n2n1 | > 9.28 µM | IC50 [1]: > 9.28 µM
22 | CC(=O)c1c(C)[nH]c(C(=O)Nc2ccc(Oc3ccccc3Cl)cc2)c1C | 7.08 µM | IC50 (HEPG2TOX_HILL_SLOPE 17, HEPG2TOX_R_SQUARED 0.739, PBLUC_HILL_SLOPE 1.26, 0.690, PBLUC_R_SQUARED 0.562, 0.913, read-out: LUCIFERASE INFECTION ASSAY - IC50): 0.831 µM
23 | CCNC(=O)c1cccc(NC(=O)CCC(=O)c2cc(C)ccc2C)c1 | > 10 µM | IC50 [1]: > 10 µM
24 | Cc1ccc(Cl)cc1N1C(=O)C=CC1=O | > 14.9 µM | IC50 (FFLUC_HILL_SLOPE 1.79, FFLUC_R_SQUARED 0.452, HEPG2TOX_HILL_SLOPE 16.8, HEPG2TOX_R_SQUARED 0.904, PBLUC_HILL_SLOPE 2.51, PBLUC_R_SQUARED 0.543, read-out: LUCIFERASE INFECTION ASSAY - IC50): 6.7 µM
25 | O=C(Cn1nnc2ccccc2c1=O)c1ccc(C2CCCCC2)cc1 | > 10 µM | IC50 (PBLUC_HILL_SLOPE 0.775, PBLUC_R_SQUARED 0.761, read-out: LUCIFERASE INFECTION ASSAY - IC50): 1.11 µM
26 | N/C(=N\OC(=O)c1ccc2ncsc2c1)c1ccccc1 | 9.73 µM | IC50 (FFLUC_HILL_SLOPE 2.58, FFLUC_R_SQUARED 0.671, PBLUC_HILL_SLOPE 1.01, PBLUC_R_SQUARED 0.623, read-out: LUCIFERASE INFECTION ASSAY - IC50): 1.1 µM
27 | COc1cccc(-c2cc3c(Nc4cccnc4)nccc3[nH]2)c1 | > 10 µM | IC50 (PBLUC_HILL_SLOPE 3.56, PBLUC_R_SQUARED 0.0884, read-out: LUCIFERASE INFECTION ASSAY - IC50): 9.12 µM
28 | CSc1nc(Sc2nnc(-c3ccc(C(C)(C)C)cc3)[nH]2)cc(Sc2nnc(-c3ccc(C(C)(C)C)cc3)[nH]2)n1 | > 5.6 µM | IC50 (PBLUC_HILL_SLOPE 11.3, PBLUC_R_SQUARED 0.117, read-out: LUCIFERASE INFECTION ASSAY - IC50): 5.38 µM
29 | Cc1nn(-c2ccccc2Cl)c2sc(C(=O)Nc3ccc(N4CCN(C)CC4)nc3)cc12 | > 10 µM | IC50 (PBLUC_HILL_SLOPE 1.19, PBLUC_R_SQUARED 0.233, read-out: LUCIFERASE INFECTION ASSAY - IC50): 5.77 µM
30 | CC(C)(C)NCC(O)CON=C1c2ccccc2-c2ccccc21 (centres undefined) | > 10 µM | IC50 (PBLUC_HILL_SLOPE 12, PBLUC_R_SQUARED 0.408, read-out: LUCIFERASE INFECTION ASSAY - IC50): 9.17 µM
31 | CC1CC(OCC(O)CN2CCN(c3ccc(F)cc3)CC2)CC(C)(C)C1 (centres undefined) | > 7.31 µM | IC50 (FFLUC_HILL_SLOPE 15.4, FFLUC_R_SQUARED 0.216, PBLUC_HILL_SLOPE 1.14, PBLUC_R_SQUARED 0.115, read-out: LUCIFERASE INFECTION ASSAY - IC50): > 7.31 µM
32 | NC(=S)N/N=C/c1ccc(Cl)cc1 | > 15.4 µM | IC50 (HEPG2TOX_HILL_SLOPE 16.1, HEPG2TOX_R_SQUARED 0.56, PBLUC_HILL_SLOPE 1.65, PBLUC_R_SQUARED 0.115, read-out: LUCIFERASE INFECTION ASSAY - IC50): > 15.4 µM
33 | CCCCCC1C(O)CC(c2ccccc2)N(C)C1c1ccccc1 (centres undefined) | > 9.78 µM | IC50 [1]: > 9.78 µM
34 | Cc1ccc(NC(=S)NC2CCCCCCCCCCC2)cc1Cl | 8.43 µM | IC50 (HEPG2TOX_HILL_SLOPE 11.3, HEPG2TOX_R_SQUARED 0.761, PBLUC_HILL_SLOPE 19.1, PBLUC_R_SQUARED 0.333, read-out: LUCIFERASE INFECTION ASSAY - IC50): 7.51 µM
35 | Cc1ccccc1C(=O)OCC(=O)c1cc(C)n(Cc2ccco2)c1C | 3.07 µM | IC50 (PBLUC_HILL_SLOPE 1.7, PBLUC_R_SQUARED 0.868, read-out: LUCIFERASE INFECTION ASSAY - IC50): 0.843 µM
36 | C/C(=N\NC(N)=S)c1ccccn1 | 2.4 µM | IC50 (HEPG2TOX_HILL_SLOPE 1.14, HEPG2TOX_R_SQUARED 0.913, PBLUC_HILL_SLOPE 1.97, PBLUC_R_SQUARED 0.843, read-out: LUCIFERASE INFECTION ASSAY - IC50): 0.788 µM
37 | Oc1c(C(Nc2ccccn2)c2ccc(Cl)cc2Cl)ccc2cccnc12 (centres undefined) | 5.13 µM | IC50 (FFLUC_HILL_SLOPE 3.3, FFLUC_R_SQUARED 0.0348, HEPG2TOX_HILL_SLOPE 1.34, HEPG2TOX_R_SQUARED 0.812, PBLUC_HILL_SLOPE 6.8, PBLUC_R_SQUARED 0.449, read-out: LUCIFERASE INFECTION ASSAY - IC50): 3.71 µM

— ChEMBL document CHEMBL4483862, “Open-source discovery of chemical leads for next-generation chemoprotective antimalarials” (2018)
